Measured values from ChEMBL document CHEMBL3045037, “Insecticidal and Neuroblocking Activities of Acetamiprid and Related Compounds” (J Pestic Sci, 2003).

Experiments:
Periplaneta americana [1] = experiment: Insecticidal activity against adult male Periplaneta americana (American cockroach) dosed through injection into abdomen assessed as mortality measured 24 hr post dose in presence of 50 ug metabolic inhibitor PB; assay type: functional
[2] = Lipophilicity, log P of the compound by HPLC based shake flask method; assay type: physicochemical
Periplaneta americana [3] = experiment: Insecticidal activity against adult male Periplaneta americana (American cockroach) dosed through injection into abdomen assessed as mortality measured 24 hr post dose in presence of 50 ug metabolic inhibitor PB and 50 ug NIA; assay type: functional
[4] = tested on: Abdominal central nerve cord; experiment: Neuroblocking activity in adult male Periplaneta americana (American cockroach) abdominal central nerve cords assessed as neuroblocking concentration measured at 22 to 25 degC; assay type: functional
Periplaneta americana [5] = experiment: Insecticidal activity against adult male Periplaneta americana (American cockroach) dosed through injection into abdomen assessed as mortality measured 24 hr post dose; assay type: functional

## C/C(=N\C#N)NCc1ccc(Cl)nc1
Periplaneta americana [1]
  log(1/MLD): 6.7
[2]
  logP: 1.07
Periplaneta americana [3]
  log(1/MLD): 7.5
[4]
  log(1/BC): 3.7
Periplaneta americana [5]
  log(1/MLD): 6.4

## CCN(Cc1ccc(Cl)nc1)/C(C)=N/C#N
Periplaneta americana [1]
  log(1/MLD): 7.63
[2]
  logP: 1.19
Periplaneta americana [3]
  log(1/MLD): 9.24
[4]
  log(1/BC): 5.87
Periplaneta americana [5]
  log(1/MLD): 7.14

## CCCN(Cc1ccc(Cl)nc1)/C(C)=N/C#N
Periplaneta americana [1]
  log(1/MLD): 7.44
[2]
  logP: 1.62
Periplaneta americana [3]
  log(1/MLD): 8.34
[4]
  log(1/BC): 5.14
Periplaneta americana [5]
  log(1/MLD): 7.04

## C/C(=N\C#N)N(Cc1ccc(Cl)nc1)C(C)C
[2]
  logP: 1.46
Periplaneta americana [3]
  log(1/MLD): 7.67
[4]
  log(1/BC): 4.47
Periplaneta americana [5]
  log(1/MLD): 6.78

## C=CCN(Cc1ccc(Cl)nc1)/C(C)=N/C#N
[2]
  logP: 1.56
Periplaneta americana [3]
  log(1/MLD): 8.07
[4]
  log(1/BC): 5.46
Periplaneta americana [5]
  log(1/MLD): 7.07

## CCCCN(Cc1ccc(Cl)nc1)/C(C)=N/C#N
[2]
  logP: 2.13
Periplaneta americana [3]
  log(1/MLD): 7.71
[4]
  log(1/BC): 4.48
Periplaneta americana [5]
  log(1/MLD): <7.01

## CCCCCN(Cc1ccc(Cl)nc1)/C(C)=N/C#N
[2]
  logP: 2.37
Periplaneta americana [3]
  log(1/MLD): 7.8
[4]
  log(1/BC): 5.01
Periplaneta americana [5]
  log(1/MLD): <6.9

## C/C(=N\C#N)N(Cc1ccccc1)Cc1ccc(Cl)nc1
[2]
  logP: 2.11
Periplaneta americana [3]
  log(1/MLD): 7.6
[4]
  log(1/BC): 4.46
Periplaneta americana [5]
  log(1/MLD): 6.7

## CC/C(=N\C#N)N(C)Cc1ccc(Cl)nc1
Periplaneta americana [1]
  log(1/MLD): 7.64
[2]
  logP: 1.12
Periplaneta americana [3]
  log(1/MLD): 8.54
[4]
  log(1/BC): 5.23
Periplaneta americana [5]
  log(1/MLD): 7.24

## CCC/C(=N\C#N)N(C)Cc1ccc(Cl)nc1
Periplaneta americana [1]
  log(1/MLD): 6.68
[2]
  logP: 1.55
Periplaneta americana [3]
  log(1/MLD): 7.77
[4]
  log(1/BC): 3.78
Periplaneta americana [5]
  log(1/MLD): <6.58

## CC(C)/C(=N\C#N)N(C)Cc1ccc(Cl)nc1
Periplaneta americana [1]
  log(1/MLD): 6.74
[2]
  logP: 1.39
Periplaneta americana [3]
  log(1/MLD): 7.44
[4]
  log(1/BC): 3.44
Periplaneta americana [5]
  log(1/MLD): 6.44

## CCCC/C(=N\C#N)N(C)Cc1ccc(Cl)nc1
Periplaneta americana [1]
  log(1/MLD): <6.37
[2]
  logP: 1.87
Periplaneta americana [3]
  log(1/MLD): 6.77
[4]
  log(1/BC): <3.37
Periplaneta americana [5]
  log(1/MLD): <6.37

## CC(C)C/C(=N\C#N)N(C)Cc1ccc(Cl)nc1
Periplaneta americana [1]
  log(1/MLD): <6.3
[2]
  logP: 1.75
Periplaneta americana [3]
  log(1/MLD): 6.9
[4]
  log(1/BC): <3.3
Periplaneta americana [5]
  log(1/MLD): <6.3

## CCCCC/C(=N\C#N)N(C)Cc1ccc(Cl)nc1
Periplaneta americana [1]
  log(1/MLD): 6.2
[2]
  logP: 2.3
Periplaneta americana [3]
  log(1/MLD): 6.8
[4]
  log(1/BC): <3.2
Periplaneta americana [5]
  log(1/MLD): <6.2

## CN(Cc1ccc(Cl)nc1)/C(=N/C#N)c1ccccc1
Periplaneta americana [1]
  log(1/MLD): 6.48
[2]
  logP: 1.86
Periplaneta americana [3]
  log(1/MLD): 6.99
[4]
  log(1/BC): <3.39
Periplaneta americana [5]
  log(1/MLD): <6.39

## CN(Cc1ccc(Cl)nc1)/C(Cc1ccccc1)=N/C#N
Periplaneta americana [1]
  log(1/MLD): <6.58
[2]
  logP: 2.13
Periplaneta americana [3]
  log(1/MLD): 6.78
[4]
  log(1/BC): <3.58
Periplaneta americana [5]
  log(1/MLD): <6.58

## C/C(=N\C#N)N(C)Cc1ccc(Cl)nc1 [ACETAMIPRID]
Periplaneta americana [1]
  log(1/MLD): 8.58
[2]
  logP: 0.83
Periplaneta americana [3]
  log(1/MLD): 9.68
[4]
  log(1/BC): 6.19
Periplaneta americana [5]
  log(1/MLD): 8.28

## O=[N+]([O-])/N=C1\NCCN1Cc1ccc(Cl)nc1 [IMIDACLOPRID]
Periplaneta americana [1]
  log(1/MLD): 9.26
[2]
  logP: 0.6
Periplaneta americana [3]
  log(1/MLD): 10.15
[4]
  log(1/BC): 5.64
Periplaneta americana [5]
  log(1/MLD): 8.96
